Assay results as given in ChEMBL document CHEMBL1131365, “Identification and SAR for a selective, nonpeptidyl thrombin inhibitor” (Bioorg Med Chem Lett, 1998).

Columns and labels:
[1] = biological target: Prothrombin (Homo sapiens, UniProt P00734); experiment: Compound was evaluated for its inhibitory activity against human thrombin
[2] = biological target: Serine protease 1 (Homo sapiens, UniProt P07477); experiment: Compound was evaluated for its inhibitory activity against trypsin
Sequence of Serine protease 1 (P07477 whole entry): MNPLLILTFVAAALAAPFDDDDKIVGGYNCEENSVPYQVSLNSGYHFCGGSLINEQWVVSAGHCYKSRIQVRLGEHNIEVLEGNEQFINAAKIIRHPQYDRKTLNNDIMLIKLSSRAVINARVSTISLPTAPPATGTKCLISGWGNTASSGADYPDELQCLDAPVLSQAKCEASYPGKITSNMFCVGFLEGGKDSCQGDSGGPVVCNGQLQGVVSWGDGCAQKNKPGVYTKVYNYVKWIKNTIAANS

SMILES	Ki [1] [µM]	Ki [2] [µM]
c1ccc(COc2ccc(C[n+]3ccccc3)cc2)cc1	> 500	–
Nc1cc[n+](Cc2ccc(OC(CCc3ccccc3)c3ccccc3)cc2)cc1 (stereo unspecified)	0.16	16
c1ccc(C(Oc2ccc(CNc3ccncc3)cc2)c2ccccc2)cc1	1.3	77
Nc1cc[n+](Cc2ccc(OC(c3ccccc3)c3ccccc3)cc2)cc1	0.058	517
c1ccc(COc2ccc(CCNc3ccncc3)cc2)cc1	7.9	568

Now from value to molecule:

Ki [1] [µM]	Ki [2] [µM]	SMILES
> 10	> 10	Nc1ccc(Cc2ccc(OCc3ccccc3)cc2)cc1
581	–	NC1CCN(Cc2ccc(OCc3ccccc3)cc2)CC1
0.7	77	Nc1cc[n+](Cc2ccc(OCc3ccccc3)cc2)cc1
4.7	233	c1ccc(COc2ccc(CNc3ccncc3)cc2)cc1
